Values of other authors in patent publication US6627427B1, “Heterologous production of 15-methyl-6-deoxyerthronolide B” (Kosan Biosciences, Inc., priority 1999, dated 2003).

Key:
[1] = statement with reference to PCT publications
Gram-positive pathogens = details: including those carrying inducible MLS resistance and many S. pneumoniae and S. pyogenes strains carrying constitutive MLS resistance

SMILES | antibiotic activity [1] | activity against Gram-positive pathogens (Gram-positive pathogens)
CCC[C@H]1OC(=O)[C@H](C)[C@@H](O[C@@H]2C[C@@](C)(OC)[C@@H](O)[C@H](C)O2)[C@H](C)[C@@H](O[C@@H]2O[C@H](C)C[C@H](N(C)C)[C@H]2O)[C@](C)(O)C[C@@H](C)C(=O)[C@H](C)[C@@H](O)[C@]1(C)O [Propyl erythromycin A, 15-methylerythromycin A] | potent antibiotic activity | 
CC[C@H]1OC(=O)[C@H](C)C(=O)[C@H](C)[C@@H](O[C@@H]2O[C@H](C)C[C@H](N(C)C)[C@H]2O)[C@](C)(OC/C=C/c2cnc3ccccc3c2)C[C@@H](C)C(=O)[C@H](C)[C@H]2NC(=O)O[C@@]21C [ABT-773] |  | excellent activity
CC[C@H]1OC(=O)[C@H](C)C(=O)[C@H](C)[C@@H](O[C@@H]2O[C@H](C)C[C@H](N(C)C)[C@H]2O)[C@](C)(OC)C[C@@H](C)C(=O)[C@H](C)[C@H]2N(CCCCn3cnc(-c4cccnc4)c3)C(=O)O[C@]12C [HMR 3647] |  | excellent activity
